# Read-outs that look alike come from different tables or passages of the source.
# Legend:
# A-549 lung carcinoma = test: Cell Growth Inhibition Assay (MTS, CellTiter 96 AQueous); assay type: cell-based
# Protocol: (§1) The two cell lines used, A375 malignant melanoma and A-549 lung carcinoma, were purchased from American Type Culture Collection. These cells were cultured at 37° C. in a humidified atmosphere of 5% CO2 in Dulbecco's Modified Eagle Medium (DMEM) supplemented with 10% fetal bovine serum (FBS), 0.1% glutamine and 0.1% penicillin-streptomycin. DMEM, FBS, glutamine and penicillin-streptomycin were purchased from Life Technologies (Grand Island, N.Y.).
# (§2) Exponentially growing cells were seeded at ˜3000 (50 μl) cells per well in 96-well flat-bottomed microtiter plates and then incubated at 37° C. in a humidified atmosphere of 5% CO2/95% air for 24 hr. An analogue was dissolved in dimethyl sulfoxide to give a concentration of 0.6 mg/ml, which was further diluted with the culture medium containing 10% fetal bovine serum. Nine three-fold dilutions were prepared with the maximum concentration being 1/300 of the original DMSO solution (i.e. 2000 ng/ml). This procedure was repeated for each analogue. Fifty microliters of the obtained dilutions were each transferred into the well of the above described culture plate. The cell culture was then placed back into the incubator at 37° C. under the 5% CO2 atmosphere for 72 hr. Cell proliferation was quantified by using the CellTiter 96 AQueous Assay (Promega). In this assay a mixture solution (20 μl) of MTS [Owen's reagent: 3-(4,5-dimethylthiazol-2-yl)-5-(3-carbomethoxyphenyl)-2-(4-sulfophenyl)-2H-tetrazolium inner salt] and phenazine methosulfate (PMS) was added to each well. The resulting mixtures were further incubated for 2.5 hr. The absorbance was measured with a microplate reader at a test wavelength of 540 nm and a reference wavelength of 655 nm to serve as an index of the number of viable cells. The inhibitory ratio of the test compound was calculated according to the following formula: inhibition ratio (%)=100×(C−T)/C, where T is an absorbance of the well containing a test compound and C is an absorbance of the well containing no test compound. The IC50 was calculated by the least squares method.
# A375 malignant melanoma = test: as above; assay type: cell-based
# Protocol: as §1, §2
# [1] = Homo sapiens, Table 1, A549 cells, 72 hr with compound, MTS readout, read-out: IC50, nM A549
# [2] = Homo sapiens, A-375, Table 1, A375 cells, 72 hr with compound, MTS readout, read-out: IC50, nM A375
# [3] = Homo sapiens, A549, 72 h, read-out: IC50, nM A549
# [4] = Homo sapiens, A-375, 72 h, read-out: IC50, nM A375
# [5] = Homo sapiens, Table 2, A549 cells, 72 hr with compound, MTS readout, read-out: IC50 (nM) Cell line A549-Lung
# [6] = Homo sapiens, A-375, Table 2, A375 cells, 72 hr with compound, MTS readout, read-out: IC50 (nM) Cell line A375-Melanoma
# [7] = Homo sapiens, Table 3, A549 cells, 72 hr with compound, MTS readout, read-out: IC50 (nM) Cell line A549-Lung
# [8] = Homo sapiens, A-375, Table 3, A375 cells, 72 hr with compound, MTS readout, read-out: IC50 (nM) Cell line A375-Melanoma
SMILES,IC50 (A-549 lung carcinoma; [1]) [nM],IC50 (A375 malignant melanoma; [2]) [nM],also measured
CC(=O)C(N)=O,160,4.5,–
NC(=O)c1ccco1,290,13,–
NC(=O)Cc1ccccc1,–,–,IC50 (A-549 lung carcinoma; [3]): 1200 nM; IC50 (A375 malignant melanoma; [4]): 34 nM
NC(=O)OCc1ccccc1,–,–,IC50 (A-549 lung carcinoma; [3]): 50 nM; IC50 (A375 malignant melanoma; [4]): 3.9 nM
COc1ccc(OC(N)=O)cc1,–,–,IC50 (A-549 lung carcinoma; [3]): 96 nM; IC50 (A375 malignant melanoma; [4]): 3.4 nM
NC(=O)c1ncccc1O,11.3,1.2,–
Cc1ccc(C(N)=O)c(O)c1,6.5,1.2,–
COc1cc(C(N)=O)cc(OC)c1OC,390,14,–
NC(=O)c1c(F)c(F)c(F)c(F)c1F,100,8.5,–
NC(=O)c1cnccn1,100,4.4,–
NC(=O)C(=O)c1c[nH]c2ccccc12,–,–,IC50 (A-549 lung carcinoma; [3]): 110 nM; IC50 (A375 malignant melanoma; [4]): 9.6 nM
NC(=O)c1cc(O)c2ccc(Cl)cc2n1,42,7.5,–
NC(=O)c1cc(O)c2cc(Cl)ccc2n1,74,13,–
COc1c(C)c(OC)c2c(c1O)[C@@H]1[C@@H]3Cc4c(OC)c(C)c(OC)c(O)c4[C@H](CNC(=O)OCC4c5ccccc5-c5ccccc54)N3[C@@H](C#N)C(C2)N1C,–,–,IC50 (A-549 lung carcinoma; [5]): 176 nM; IC50 (A375 malignant melanoma; [6]): 35 nM
CCCCC[C@H]1c2c(O)c(OC)c(C)c(OC)c2C[C@H]2[C@H]3c4c(O)c(OC)c(C)c(OC)c4C[C@@H]([C@H](C#N)N12)N3C,–,–,IC50 (A-549 lung carcinoma; [5]): 1400 nM; IC50 (A375 malignant melanoma; [6]): 116 nM
COc1c(C)c(OC)c2c(c1O)[C@@H]1[C@@H]3Cc4c(OC)c(C)c(OC)c(O)c4[C@H](CNC(=O)c4ccc5cc(OCCCCN)ccc5n4)N3[C@@H](C#N)[C@H](C2)N1C,–,–,IC50 (A-549 lung carcinoma; [5]): 118 nM; IC50 (A375 malignant melanoma; [6]): 29 nM
"COc1c(C)c(OC)c2c(c1O)[C@@H]1[C@@H]3Cc4c(OC)c(C)c(OC)c(O)c4[C@H](CNC(=O)c4ccc5cc(OCCCCNC(=O)CCCCCNC(=O)CCCCCNC(=O)CCCC[C@@H]6SC[C@@H]7NC(=O)N[C@@H]76)ccc5n4)N3[C@@H](C#N)[C@H](C2)N1C [Biotinylated derivative, Biotinylated Quinalascidin Analog 1]",–,–,"IC50 (A-549 lung carcinoma; Homo sapiens, A549, 72 h, read-out: IC50 (nM) Cell line A549-Lung): 990 nM; IC50 (A375 malignant melanoma; Homo sapiens, A-375, 72 h, read-out: IC50 (nM) Cell line A375-Melanoma): 210 nM"
"COc1c(C)c(OC)c2c(c1O)[C@@H]1[C@@H]3Cc4c(OC)c(C)c(OC)c(O)c4[C@H](CN(Cc4ccccn4)Cc4ccccn4)N3[C@@H](C#N)[C@H](C2)N1C [N-(Pyr)2, bis-2-Pyridyl Derivative]",> 1400,> 1400,–
"COC1=C(C)C(=O)C2=C(C1=O)[C@@H]1[C@@H]3CC4=C(C(=O)C(OC)=C(C)C4=O)[C@H](CNC(=O)C(C)=O)N3[C@@H](C#N)[C@H](C2)N1C [Saframycin A, (−)-Saframycin A, reference compound]",–,–,"IC50 (A-549 lung carcinoma; Table 1, A549 cells, 72 hr with compound, MTS readout, read-out: IC50, nM A549): 133 nM; IC50 (A375 malignant melanoma; Table 1, A375 cells, 72 hr with compound, MTS readout, read-out: IC50, nM A375): 5.3 nM"
"COc1c(C)c(OC)c2c(c1O)[C@@H]1[C@@H]3Cc4c(OC)c(C)c(OC)c(O)c4[C@H](CNC(=O)c4ccccc4F)N3[C@@H](C#N)[C@H](C2)N1C [drawing 136 R = F, 2-Fluorobenzamide derivative]",37,2.5,–
"COc1c(C)c(OC)c2c(c1O)[C@@H]1[C@@H]3Cc4c(OC)c(C)c(OC)c(O)c4[C@H](CNC(=O)c4ccccc4)N3[C@@H](C#N)[C@H](C2)N1C [drawing 136 R = H, Benzamide derivative]",91,4.1,–
"COc1c(C)c(OC)c2c(c1O)[C@@H]1[C@@H]3Cc4c(OC)c(C)c(OC)c(O)c4[C@H](CNC(=O)c4ccccc4-c4ccccc4)N3[C@@H](C#N)[C@H](C2)N1C [drawing 136 R = Phenyl, Biphenyl-2-carboxylic acid amide derivative]",330,34,–
"COc1c(C)c(OC)c2c(c1O)[C@@H]1[C@@H]3Cc4c(OC)c(C)c(OC)c(O)c4[C@H](CNC(=O)c4ccc5ccccc5n4)N3[C@@H](C#N)[C@H](C2)N1C [drawing 160 R = H (11), Quinoline-2-carboxylic acid amide derivative]",4.4,1.3,–
"COc1c(C)c(OC)c2c(c1O)[C@@H]1[C@@H]3Cc4c(OC)c(C)c(OC)c(O)c4[C@H](CNC(=O)c4ccc5cc(Cl)ccc5n4)N3[C@@H](C#N)[C@H](C2)N1C [drawing 162 R = Cl (14), 6-Chloroquinoline-2-carboxylic acid amide derivative]",4.1,1.5,–
"COc1c(C)c(OC)c2c(c1O)[C@@H]1[C@@H]3Cc4c(OC)c(C)c(OC)c(O)c4[C@H](CNC(=O)c4ccc5ccccc5n4)N3C[C@H](C2)N1C [drawing 172 X = H, Reduced quinalascidin analog]",–,–,IC50 (A-549 lung carcinoma; [7]): > 9000 nM; IC50 (A375 malignant melanoma; [8]): > 9000 nM
"COc1c(C)c(OC)c2c(c1O)[C@@H]1[C@@H]3Cc4c(OC)c(C)c(OC)c(O)c4[C@H](CNC(=O)c4ccc5ccccc5n4)N3[C@@H](OC)[C@H](C2)N1C [drawing 172 X = OCH3, Methoxy derivative]",–,–,IC50 (A-549 lung carcinoma; [7]): 1100 nM; IC50 (A375 malignant melanoma; [8]): 120 nM
"COc1c(C)c(OC)c2c(c1O)[C@@H]1[C@@H]3Cc4c(OC)c(C)c(OC)c(O)c4[C@H](CNC(=O)c4ccc5ccccc5n4)N3[C@@H](O)[C@H](C2)N1C [drawing 172 X = OH, Hemiaminal derivative]",–,–,IC50 (A-549 lung carcinoma; [7]): 13 nM; IC50 (A375 malignant melanoma; [8]): 0.9 nM

# Now from value to molecule, other results behind:
IC50 (A-549 lung carcinoma; [1]) [nM],IC50 (A375 malignant melanoma; [2]) [nM],SMILES,also measured
1100,330,NCc1ccccc1,–
700,260,NCc1ccccn1,–
39,2.4,NC(=O)C(=O)Cc1ccccc1,–
890,37,NC(=O)Nc1ccccc1,–
860,81,Cc1ccc(S(N)(=O)=O)cc1,–
99,4.1,COc1cccc(C(N)=O)c1,–
395,12,NC(=O)c1c(F)cccc1F,–
40,3.3,NC(=O)c1ccccn1,–
31,2.7,NC(=O)c1cc2ccccc2[nH]1,–
1200,76,NC(=O)c1c[nH]c2ccccc12,–
1100,85,NC(=O)c1cccc2[nH]ccc12,–
26,2.5,NC(=O)c1cc2cc(F)ccc2[nH]1,–
1100,96,NC(=O)[C@H](Cc1c[nH]c2ccccc12)NC(=O)OCc1ccccc1,–
> 1400,310,NC(=O)[C@@H](N)Cc1c[nH]c2ccccc12,–
9.2,1.7,O=C1NC(=O)c2ccccc21,–
> 510,> 510,O=C1NC(=O)c2ncccc21,–
44,2.9,NC(=O)/C=C/c1ccccc1,–
390,43,NC(=O)c1cccc2ccccc12,–
32,2.5,NC(=O)c1nccc2ccccc12,–
320,23,NC(=O)c1c(O)ccc2ccccc12,–
25,9.2,NC(=O)c1ncc(Br)c2ccccc12,–
4.6,1.4,Cc1ccc2ccc(C(N)=O)nc2c1,–
4.7,1.2,NC(=O)c1cnc2ccccc2n1,–
200,8.3,NC(=O)[C@@H]1Cc2ccccc2CN1,–
–,3440,NC(=O)C1NCCc2ccccc21 (stereo not shown),–

# Reference: US7122549B2, “Saframycins, analogues and uses thereof” (President and Fellows of Harvard College, priority 2000, dated 2006)
